Results published in PubChem BioAssay AID2006 (Sanford-Burnham Center for Chemical Genomics, 2009).

target: SUMO-conjugating enzyme UBC9 (Homo sapiens) (UniProt P63279); assay: inhibitors of in vitro SUMOylation cascade, primary screen, biochemical, HTRF, uHTS (AID 2006); settings: HTRF SUMOylation assay, SAE1/SAE2 + UBC9, in vitro
Sequence (P63279 whole entry, looked up): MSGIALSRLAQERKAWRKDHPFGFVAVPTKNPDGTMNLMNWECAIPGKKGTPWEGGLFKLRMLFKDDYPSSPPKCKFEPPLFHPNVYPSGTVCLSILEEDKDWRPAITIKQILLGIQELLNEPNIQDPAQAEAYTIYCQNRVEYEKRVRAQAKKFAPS

IC50, active:
O=C(O)c1ccc(/C=N/NC(=O)c2ccc(CN3c4cccc5cccc(c45)S3(=O)=O)cc2)cc1 11.1 µM
O=C1NC(=Nc2ccc3ccccc3c2)S/C1=C/c1ccco1 14 µM
O=C(CN1C(=O)S/C(=C\c2ccccc2)C1=O)NNC(=O)c1ccccc1O 37.9 µM
NS(=O)(=O)c1ccc(NC(=O)c2ccc(-c3ccccc3)cc2)cc1 13.8 µM
